# Where no end group is shown, it is not given here.
# Assays:
# A. baumannii [1] = experiment: MIC and MBC by media dilution test and subculture (CLSI); type: cell-based, Acinetobacter baumannii
# Method: In Example 2, in order to confirm the antibacterial effect of octopromycin on A. baumannii bacteria having multi-drug resistance, a minimum inhibitory concentration (MIC) and a minimum bactericidal concentration (MBC) of octopromycin were confirmed.
# (§1) The MIC and MBC levels of octopromycin in A. baumannii were determined using media dilution tests and subcultures, respectively, according to the guidelines of the Clinical and Laboratory Standards Institute (CLSI, 2008 M27-A3). Several concentrations of octopromycin (0, 5, 10, 25, 50, 100, and 200 μg/mL) were tested as standard antibiotics (positive control) together with chloramphenicol (10 μg/mL, Sigma-Aldrich, USA) acting on A. baumannii growth and the MBC of chloramphenicol was confirmed according to the same procedure. The MIC was determined as the minimum concentration required to inhibit visual growth of A. baumannii. […] For analysis of time-kill kinetics, A. baumannii was cultured with octopromycin at various concentrations (0, 25, 50, 100, and 200 μg/mL) in the TSA medium at 25° C., and at different time intervals (0, 3, 6, 9, 12, 18, and 21 h), the absorbance was measured at 595 nm using a microplate reader (Bio-Rad, Saint Louis, USA) to confirm an inhibitory effect after culturing.
# A. baumannii [2] = experiment: Time-kill kinetics (OD 595 nm); type: cell-based, Acinetobacter baumannii
# Method: as §1
# A. baumannii [3] = type: cell-based; settings: Acinetobacter baumannii, 24 h, 200 μg/mL
# Method: A. baumannii was cultured in TSB (OD-0.25, 2.5 x 10^6 CFU/mL) and treated with octopromycin at various concentrations (0, 25, 50, 75, 100, 150, and 200 μg/mL). After culturing for 24 hours in a shaking incubator at 180 rpm at 25° C., A. baumannii was centrifuged at 3500 rpm for 10 minutes, and the cells were washed with PBS. For cell viability assay, A. baumannii cells reacted with 20 μL of an MTT reagent (Sigma Aldrich, USA) for 30 minutes, and the samples were resuspended in dimethylsulfoxide (Sigma Aldrich, USA). The cell viability was measured based on OD at 570 nm using a microplate reader (Bio-Rad, Saint Louis, USA).
# A. baumannii biofilm = experiment: Eradication of already formed biofilm (crystal violet staining); type: cell-based, Acinetobacter baumannii; settings: 24 hours after treatment
# Method: Next, the effect of octopromycin on biofilm eradication in A. baumannii was confirmed. To measure the eradication effect of the already formed biofilm, 100 μL of A. baumannii (5×10^5 CFU/mL) was cultured in TSB for 24 hours. The culture medium was removed and the wells were carefully washed with PBS to eradicate planktonic bacteria. The wells were added with octopromycin (50 μg/mL (MIC) and 200 μg/mL (MBC)) and further cultured for 24 hours. The biofilm was stained with crystal violet for 30 minutes, washed three times with PBS, and dissolved in 95% ethanol, and the absorbance was measured at 495 nm using a microplate reader (Bio-Rad, USA).
# [4] = MTT cytotoxicity assay in HEK293 cells; type: cell-based, human; settings: HEK293T cells
# Method: (§2) To measure the cytotoxicity of octopromycin on HEK293T (American Type Culture Collection ATCC-11268) and Raw 264.7 cells, the cells were treated with octopromycin and cell viability was evaluated. The cells were harvested, counted and seeded at a density of […] per well in a 96-well plate and cultured for 24 hours at 37° C. and 5% CO2. The cells were treated with different concentrations of octopromycin (0 to 800 μg/mL) and cultured for 24 hours. After culturing, the culture medium was replaced with a fresh medium, and 10 μL of MTT (5 mg/mL) was added to each well and incubated in a CO2 incubator for 4 hours. The formed formazan crystals were dissolved in 50 μL of DMSO and absorbance was measured at 570 nm using a microplate reader (Bio-Rad Laboratories, Inc, USA). Cells treated with the medium (control) were considered as 100% viability (control group), and current viability was normalized and calculated for the untreated control group.
# HEK293T cells = experiment: MTT cytotoxicity assay in HEK293 cells; type: cell-based, human
# Method: as §2
# [5] = MTT cytotoxicity assay in Raw 264.7 cells; type: cell-based; settings: mouse, Raw 264.7 cells
# Method: as §2
# Raw 264.7 cells = experiment: MTT cytotoxicity assay in Raw 264.7 cells; type: cell-based
# Method: as §2
# A. baumannii [6] = experiment: A. baumannii-infected zebrafish model (viability, CFU, clinical signs); type: in vivo
# Method: The effect of octopromycin as an antibacterial agent was confirmed using zebrafish as an animal model.
# A total of 72 zebrafish (average weight: 0.35±0.05 g) were divided into 3 groups: (1) non-infected control group treated with PBS and water, (2) A. baumannii-infected group, and (3) A. baumannii-infected and octopromycin-treated group (octopromycin-treated group).
# Zebrafish was anesthetized using system water containing 160 μg/mL of tricaine (ethyl 3-aminobenzoate methane sulfonate). The control group ((1) group) was injected with 10 μL of nucleous free water (NFW) and 20 μL of PBS using a Hamilton® syringe. The A. baumannii-infected group ((2) group) was injected intraperitoneally with 10 μL of NFW, and the octopromycin-treated group ((3) group) was injected intraperitoneally with 10 μL of octopromycin (10 μg/fish). Then, A. baumannii was injected intraperitoneally (0 hpi) in the A. baumannii-infected group and the octopromycin-treated group at a dose of 20 μ1 (3.4×10^11 CFU) per fish, and then injected every 2 hpi until 48 hpi. To confirm the antibacterial effect of octopromycin, fish mortality was recorded every 12 hpi and the viability of each group was examined.
# In addition, the number of bacteria (CFU) in the kidneys and spleens of the control group and the infected zebrafish was observed. 3 fish from each group at the 80% mortality stage of the A. baumannii-infected group was selected, and then the spleen and the kidney were collected, and individual spleen and kidney tissues from each zebrafish were homogenized in PBS and the homogenates were serially diluted and loaded onto an agar plate (TSA) to measure A. baumannii CFU.
sequence,measurement,setting,value
RRLIRTDTGPIIYDYFKDQLLKKGMVILRESMKNLKGM [octopromycin],minimum bactericidal concentration (MBC),"A. baumannii [1]; subculture on TSA, 24 hours",200 mg/L
same,minimum inhibitory concentration (MIC),A. baumannii [1]; visual growth,50 mg/L
same,growth inhibition (time-kill kinetics),"A. baumannii [2]; 25 μg/mL, up to 12 hours",partial growth inhibition
same,growth inhibition (time-kill kinetics),"A. baumannii [2]; at a MIC concentration or less, 25° C., OD 595 nm",clear growth inhibition
same,cell viability of A. baumannii,A. baumannii [3],1.54%
same,reduction in biofilm (eradication),A. baumannii biofilm; MBC (200 μg/mL),64.2%
same,reduction in biofilm (eradication),A. baumannii biofilm; MIC (50 μg/mL),64.0%
same,viability at 24 h,"[4]; human embryonic kidney 293T, concentration not given, read-out: cells alive",≥ 85%
same,"viability at 24 h, 400 µg/mL","[4]; human, HEK293, 400 μg/mL, 24 hours, read-out: cell viability",85%
same,cell viability,"HEK293T cells; HEK293, >400 μg/mL",significantly reduced
same,toxic effect,"HEK293T cells; HEK293, MBC level (200 μg/mL)",no toxic effect
same,"viability at 24 h, 400 µg/mL","[5]; Raw 264.7, 400 μg/mL, 24 hours, read-out: cell viability",80%
same,viability at 24 h,"[5]; Raw 264.7, concentration not stated, read-out: cells alive",≥ 85%
same,cell viability,"Raw 264.7 cells; Raw 264.7, >400 μg/mL",significantly reduced
same,toxic effect,"Raw 264.7 cells; Raw 264.7, MBC level (200 μg/mL)",no toxic effect
same,viability of infected zebrafish,"A. baumannii [6]; 10 μg/fish intraperitoneally, 48 hours after A. baumannii infection",37.5%
same,number of bacteria (CFU) in spleen and kidney,"A. baumannii [6]; 10 μg/fish, rank among the three groups",second highest
same,external clinical signs (hemorrhage),"A. baumannii [6]; 10 μg/fish, vs A. baumannii-infected group",less hemorrhage

# Reference: US20230321187A1, “OCTOPUS-DERIVED PEPTIDE OCTOPROMYCIN HAVING ANTIBACTERIAL AND ANTI-BIOFILM ACTIVITY AGAINST ACINETOBACTER BAUMANNII” (priority 2020, published 2023)
